From patent US9408406B2, “Food and beverage products containing 1,3-propanediol and methods of suppressing bitterness and enhancing sweetness in food and beverage products using 1,3-propanediol” (Kraft Foods Group Brands LLC, priority 2012, dated 2016)
Entries after “also recorded” stand apart in the source; their conditions may differ.

Experiments:
[1] = tested on: consumers; assay: KCl bitterness sensitivity test (Example 3); type: in vivo, human
From the text: (§1) On day 1 of testing, consumers were given two samples, one a 0.25% KCl solution and the other water, and asked “Which beverage is more bitter?” This was replicated a total of three times to obtain four different trials. Order within the pair was rotated. Those who selected the KCl sample at least three times across the four trials were classified as “KCl sensitive.” Consumers then evaluated three more pairs of samples with varying levels of 1,3-propanediol with KCl versus a standard control (no 1,3-propanediol) as outlined in Table 3 below.
(§2) After the first day of testing, it was determined the number of KCl Bitterness Sensitive consumers may have been overstated. It was hypothesized that respondents could detect differences between plain water and water containing KCl, such as saltiness, but may not have been perceiving bitterness. Therefore, a second bitterness sensitivity test was conducted on day 2 using three pairs of a KCl solution (0.25%) versus a NaCl solution (0.15%) in an attempt to have the solutions iso-salty. Two new levels of Zemea were evaluated along with KCl versus a standard control as outlined in Table 3 below.

[2] = tested on: consumers; assay: Paired consumer tasting of beverages with 0.05% Stevia SG95 with or without 1,3-propanediol (Example 1); type: in vivo, human
Experimental: Beverage samples were prepared to evaluate the effect of the level of 1,3-propanediol on Stevia. The beverages were prepared just prior to testing using water and the ingredients according to Table 1 below.
Four pairs of beverages were evaluated by consumers in one sitting. The order of evaluating the pairs of products was blocked so that the highest level of 1,3-propanediol (sample 4) was always served as the first pair of beverages along with its corresponding control. The order of evaluating the beverage samples within pairs was rotated. There was a timed five minute break between pairs. Water and unsalted crackers were used as a palate cleanser before tasting each beverage and between beverage pairs. The beverages were prepared at the facility prior to the onset of test using water along with the designated solutions.
The stevia used was SG95 from PureCircle. SG95 is a high purity combination (>95% steviol glycosides) of nine steviol glycosides. Reb A accounts for over half of the composition but also includes Rebaudioside D and Rebaudioside F. SG95 is 230 times sweeter than sugar.
The samples were tasted by consumers between 21-55 years of age who consume diet beverages at least once per month and are non-rejectors of flavored beverages. The consumers had no allergies or sensitivities to beverages or sweeteners, including artificial sweeteners.

[3] = tested on: tasters; assay: Paired taster test: which sample is more bitter, 0.25% KCl in water with or without 1,3-propanediol (Example 2); type: in vivo, human
Experimental: A 0.25% KCl in water solution was prepared and test samples were dosed with the appropriate amount of 1,3-propanediol according to Table 2 below. One ounce samples of each solution were prepared. The tasters received a pair (one blank and one dosed sample) and asked to rate which sample was more bitter. The scores in Table 2 are the number of tasters that chose that sample as being more bitter.

[4] = tested on: consumers; assay: Paired consumer tasting of beverages with 0.25% KCl with or without 1,3-propanediol (Example 3); type: in vivo, human
Experimental: Beverage samples were prepared to evaluate the effect of the level of 1,3-propanediol on KCl. The samples were tasted by consumers between 21-55 years of age with no allergies or sensitivities to food or beverages or ingredients.
as §1, §2
The order of evaluating the beverage samples within pairs were rotated (left/right). The order of evaluating the pairs of products was blocked so the highest level of 1,3-propanediol was always served as the first pair of beverages along with its control. There was a timed 5 minute break between pairs. Water and unsalted crackers were used as a palate cleanser before tasting each beverage and between beverage pairs.

[5] = tested on: tasters; assay: Triangle test for detecting 1,3-propanediol at low concentration (Example 4); type: in vivo, human; conditions: for tasters who could identify the 1,3-propanediol in a triangle test: four tasters
Experimental: Samples A-D were prepared according to Table 4 below to analyze and determine if 1,3-propanediol imparted any flavor when used at low concentrations. The samples were evaluated by a team of four tasters.
Samples A and B were compared.

[6] = tested on: panelists; assay: Panel assessment of Reb A beverage with or without 1,3-propanediol (Example 5); type: in vivo, human; conditions: Sample H versus Sample G
Experimental: Samples were prepared to analyze the effect of 1,3-propanediol with sweeteners such as Reb A. Samples G and H were prepared as shown in Table 5 below.
Nine panelists compared the samples. Panelists rinsed prior to tasting the samples and in between sample assessment with seltzer, unsalted crackers and water with a one-minute break between samples. Samples were assessed on the second sip. The results are shown below in Table 6 with the comments indicating the order of what was tasted in each of the samples (Scale: 0-15=None to Extreme).

[7] = tested on: tasters; assay: Taster evaluation with acetic acid (Example 7); type: in vivo, human; conditions: 0.05 percent acetic acid in water; none, 0.3 percent 1,3-propanediol or 0.3 percent propylene glycol; three tasters
Experimental: Samples were prepared to evaluate the effect of inclusion of 1,3-propanediol with acetic acid. Sample M included 0.05 percent acetic acid in water, Sample N included 0.05 percent acetic acid in water with 0.3 percent 1,3-propanediol, and Sample O included 0.05 percent acetic acid in water with 0.3 percent propylene glycol. The samples were evaluated by a team of three tasters.

[8] = tested on: tasters; assay: Taster evaluation with 1% citric acid (Example 9); type: in vivo, human; conditions: 1 weight percent citric acid in water; 0.3 weight percent propylene glycol (V), none (W) or 1,3-propanediol (X); four tasters
Experimental: Samples were prepared to evaluate the effect of including 1,3-propanediol with a higher concentration of citric acid than in Example 8. Sample V included 1 weight percent citric acid and 0.3 weight percent propylene glycol in water. Sample W included 1 weight percent citric acid in water. Sample X included 1 weight percent citric acid in water with 0.3 weight percent 1,3-propanediol. The samples were then evaluated by a team of four tasters.

[9] = tested on: tasters; assay: Taster evaluation with malic acid (Example 10); type: in vivo, human; conditions: 1 weight percent malic acid in water; 0.3 weight percent 1,3-propanediol (Y), propylene glycol (Z) or none (AA)
Experimental: Samples were prepared to evaluate the effect of including 1,3-propanediol with malic acid. Sample Y included 1 weight percent malic acid with 0.3 weight percent 1,3-propanediol in water. Sample Z included 1 weight percent malic acid and 0.3 weight percent propylene glycol in water. Sample AA included 1 weight percent malic acid in water.

[10] = tested on: tasters; assay: Taster evaluation with earl grey tea (Example 11); type: in vivo, human; conditions: steeped earl grey tea; 0.3 weight percent 1,3-propanediol (AB), none (AC) or propylene glycol (AD); four tasters
Experimental: Samples were prepared to evaluate the effect of including 1,3-propanediol with tea. Six earl grey tea bags were combined with 250 ml of water for 30 minutes. Sample AB included 0.3 weight percent 1,3-propanediol in the steeped tea and Sample AD included 0.3 weight percent propylene glycol in the steeped tea. Sample AC was a tea only control. The samples were evaluated by a team of four tasters.

[11] = tested on: tasters; assay: Taster evaluation with Robusta instant coffee (Example 12); type: in vivo, human; conditions: 1 weight percent Robusta instant coffee in water; 0.3 weight percent propylene glycol (AE), none (AF) or 1,3-propanediol (AG)
Experimental: Samples were prepared to evaluate the effect of including 1,3-propanediol with coffee. Robusta instant coffee was prepared with 1 weight percent coffee in water. Sample AE included 0.3 weight percent propylene glycol in the prepared coffee. Sample AF was a coffee only control. Sample AG included 0.3 weight percent 1,3-propanediol in the prepared coffee.

[12] = tested on: tasters; assay: Bitterness perception with potassium chloride, taster panel (Example 6); conditions: 0.3% KCl in water; 0.3% 1,3-propanediol, none or 0.3% propylene glycol; five tasters
[13] = first round, Pair 1: 0.0019 percent 1,3-propanediol with 0.05% Stevia SG95
[14] = first round, Pair 2: 0.0075 percent 1,3-propanediol with 0.05% Stevia SG95
[15] = second round, Pair 2: 0.000005 percent 1,3-propanediol with 0.05% Stevia SG95
[16] = second round, Pair 4: 0.0005 percent 1,3-propanediol with 0.05% Stevia SG95
[17] = 0.000005 ppm 1,3-propanediol in 0.25% KCl in water
[18] = 0.00005 ppm 1,3-propanediol in 0.25% KCl in water
[19] = 0.005 ppm 1,3-propanediol in 0.25% KCl in water
[20] = 0.05 ppm 1,3-propanediol in 0.25% KCl in water
[21] = 0.5 ppm 1,3-propanediol in 0.25% KCl in water
[22] = 5 ppm 1,3-propanediol in 0.25% KCl in water
[23] = 50 ppm 1,3-propanediol in 0.25% KCl in water
[24] = 100 ppm 1,3-propanediol in 0.25% KCl in water
[25] = 500 ppm 1,3-propanediol in 0.25% KCl in water
[26] = 5000 ppm 1,3-propanediol in 0.25% KCl in water
[27] = about 0.0005% 1,3-propanediol with 0.25% KCl, consumers (general population), FIG. 4

[Cl-].[K+] [KCl, potassium chloride]
share of “KCl sensitive” consumers ([1]; day 1: 0.25% KCl solution versus water): 67% | share of “KCl sensitive” consumers ([1]; day 2: KCl solution (0.25%) versus NaCl solution (0.15%)): 53%

OCCCO [1,3-propanediol]
Stevia bitterness versus control [2, 13]: significantly less Stevia bitterness | more mouth drying, longer lasting aftertaste and sweetness versus control [2, 13]: Neither the control nor the experimental sample of Pair 1 demonstrated significantly | sweetness versus control [2, 13]: fell short on being sweeter than control | all other attributes versus control [2, 14]: selected about equally | mouth drying versus control [2, 14]: significantly more “mouth drying” | attributes versus control ([2]; first round, Pair 3: 0.0150 percent 1,3-propanediol with 0.05% Stevia SG95): no statistical differences in attributes | attributes versus control ([2]; first round, Pair 4: 0.03 percent 1,3-propanediol (text; Table 1 prints 0.3%) with 0.05% Stevia SG95): no statistical differences in attributes | bitterness versus control ([2]; first round, Pair 4 level of 1,3-propanediol with 0.05% Stevia SG95): numerically more bitterness | attributes versus control ([2]; second round, Pair 1: 0.0000005 percent 1,3-propanediol with 0.05% Stevia SG95): no statistical differences in attributes | aftertaste compared to control [2, 15]: significantly longer lasting aftertaste | all other attributes versus control [2, 15]: selected about equally | attributes versus control ([2]; second round, Pair 3: 0.00005 percent 1,3-propanediol with 0.05% Stevia SG95): no statistical differences in attributes | bitterness compared to control [2, 16]: significantly less bitterness | sweetness compared to control [2, 16]: more sweetness; also recorded: significantly sweeter versus control | % of tasters that chose the control as more bittter [3, 17]: 63% | number of tasters that chose the 1,3-Propanediol sample as being more bitter [3, 17]: 3 | % of tasters that chose the control as more bittter [3, 18]: 63% | number of tasters that chose the 1,3-Propanediol sample as being more bitter [3, 18]: 3 | % of tasters that chose the control as more bittter ([3]; 0.0005 ppm 1,3-propanediol in 0.25% KCl in water): 100% | % of tasters that chose the control as more bittter [3, 19]: 50% | number of tasters that chose the 1,3-Propanediol sample as being more bitter [3, 19]: 4 | % of tasters that chose the control as more bittter [3, 20]: 75% | number of tasters that chose the 1,3-Propanediol sample as being more bitter [3, 20]: 2 | % of tasters that chose the control as more bittter [3, 21]: 63% | number of tasters that chose the 1,3-Propanediol sample as being more bitter [3, 21]: 3 | % of tasters that chose the control as more bittter [3, 22]: 63% | number of tasters that chose the 1,3-Propanediol sample as being more bitter [3, 22]: 3 | % of tasters that chose the control as more bittter [3, 23]: 75% | number of tasters that chose the 1,3-Propanediol sample as being more bitter [3, 23]: 2 | % of tasters that chose the control as more bittter [3, 24]: 75% | number of tasters that chose the 1,3-Propanediol sample as being more bitter [3, 24]: 2 | % of tasters that chose the control as more bittter [3, 25]: 75% | number of tasters that chose the 1,3-Propanediol sample as being more bitter [3, 25]: 2 | % of tasters that chose the control as more bittter [3, 26]: 13% | number of tasters that chose the 1,3-Propanediol sample as being more bitter [3, 26]: 7 | taste of 1,3-propanediol itself ([3]; 5000 ppm sample in 0.25% KCl in water): the bitterness of the 1,3-propanediol was apparent | sweetness, statistical significance ([4]; 0.0005 percent 1,3-propanediol with 0.25% KCl, non-KCl sensitive consumers): statistically significant increase in sweetness | reduced bitterness and increased sweetness ([4]; about 0.0005% 1,3-propanediol with 0.25% KCl, KCl sensitive consumers, FIG. 5): also found in the KCl sensitive consumers (FIG. 5), although to a less dramatic extent | bitterness [4, 27]: reduced bitterness | sweetness [4, 27]: increased sweetness | tasters who could identify the 1,3-propanediol in a triangle test ([5]; Samples A and B: 0.14% 1,3-propanediol in water): one | tasters who could identify the 1,3-propanediol in a triangle test ([5]; Samples C and D: 0.14% 1,3-propanediol in water with 10% sucrose): one | detectability at low levels ([5]; water or sucrose sweetened beverages): generally not detectable at low levels | effect on flavor profile with Reb A [6]: general shift in bitter and sour flavor profiles | sourness as indicated by the tasters [7]: increases the sourness compared to water when combined with acetic acid | sourness as indicated by the tasters [8]: increased sourness perception when combined with citric acid | sourness as indicated by the tasters [9]: more sour upfront but less lingering | other flavor notes / flavor profile as indicated by the tasters [10]: sour, bitter, and astringent characteristics all changed | bitterness as indicated by the tasters [11]: less bitter than without 1,3-propanediol | bitterness as indicated by the tasters [12]: functioned to suppress bitterness when used with potassium chloride
